Results from patent US20260151403A1, “NEK7 DEGRADERS AND METHODS OF USE THEREOF” (Captor Therapeutics S.A., priority 2022, published 2026).

Legend:
[1] = biological target: [NEK7]-[compound of formula (I)]-[CRBN/DDB1] complex (Homo sapiens, UniProt Q8TDX7+Q96SW2); assay: AlphaLISA dose response ternary complex formation assay; assay type: binding; conditions: 1 μM compound; normalized to maximum signal of Compound 2 (positive control) and DMSO background; read-out: Normalized AlphaLISA ternary complex average signal at 1 μM molecule
Sequence of [NEK7]-[compound of formula (I)]-[CRBN/DDB1] complex (Q8TDX7 whole entry): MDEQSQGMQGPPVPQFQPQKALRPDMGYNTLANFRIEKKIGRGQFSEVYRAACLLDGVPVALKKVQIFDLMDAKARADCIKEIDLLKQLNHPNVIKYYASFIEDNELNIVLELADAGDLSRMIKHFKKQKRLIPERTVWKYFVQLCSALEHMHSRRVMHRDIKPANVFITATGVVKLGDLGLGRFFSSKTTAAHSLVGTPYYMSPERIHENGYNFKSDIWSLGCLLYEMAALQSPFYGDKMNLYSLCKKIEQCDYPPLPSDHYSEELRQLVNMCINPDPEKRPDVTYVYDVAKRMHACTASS
Sequence of [NEK7]-[compound of formula (I)]-[CRBN/DDB1] complex (Q96SW2 whole entry): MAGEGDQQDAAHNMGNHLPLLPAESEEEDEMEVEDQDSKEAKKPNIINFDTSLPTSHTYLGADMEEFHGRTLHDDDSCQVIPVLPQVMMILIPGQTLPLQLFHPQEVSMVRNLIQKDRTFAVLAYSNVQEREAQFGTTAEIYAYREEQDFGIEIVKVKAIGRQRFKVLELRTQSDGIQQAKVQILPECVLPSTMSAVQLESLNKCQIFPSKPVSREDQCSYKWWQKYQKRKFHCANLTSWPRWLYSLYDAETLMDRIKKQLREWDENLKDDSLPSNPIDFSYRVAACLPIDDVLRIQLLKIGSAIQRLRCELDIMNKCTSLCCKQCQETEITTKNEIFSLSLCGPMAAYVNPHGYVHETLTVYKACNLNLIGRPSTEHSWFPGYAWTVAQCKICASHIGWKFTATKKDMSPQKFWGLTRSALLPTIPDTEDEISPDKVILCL
Sequence of [NEK7]-[compound of formula (I)]-[CRBN/DDB1] complex (Q16531 whole entry partner): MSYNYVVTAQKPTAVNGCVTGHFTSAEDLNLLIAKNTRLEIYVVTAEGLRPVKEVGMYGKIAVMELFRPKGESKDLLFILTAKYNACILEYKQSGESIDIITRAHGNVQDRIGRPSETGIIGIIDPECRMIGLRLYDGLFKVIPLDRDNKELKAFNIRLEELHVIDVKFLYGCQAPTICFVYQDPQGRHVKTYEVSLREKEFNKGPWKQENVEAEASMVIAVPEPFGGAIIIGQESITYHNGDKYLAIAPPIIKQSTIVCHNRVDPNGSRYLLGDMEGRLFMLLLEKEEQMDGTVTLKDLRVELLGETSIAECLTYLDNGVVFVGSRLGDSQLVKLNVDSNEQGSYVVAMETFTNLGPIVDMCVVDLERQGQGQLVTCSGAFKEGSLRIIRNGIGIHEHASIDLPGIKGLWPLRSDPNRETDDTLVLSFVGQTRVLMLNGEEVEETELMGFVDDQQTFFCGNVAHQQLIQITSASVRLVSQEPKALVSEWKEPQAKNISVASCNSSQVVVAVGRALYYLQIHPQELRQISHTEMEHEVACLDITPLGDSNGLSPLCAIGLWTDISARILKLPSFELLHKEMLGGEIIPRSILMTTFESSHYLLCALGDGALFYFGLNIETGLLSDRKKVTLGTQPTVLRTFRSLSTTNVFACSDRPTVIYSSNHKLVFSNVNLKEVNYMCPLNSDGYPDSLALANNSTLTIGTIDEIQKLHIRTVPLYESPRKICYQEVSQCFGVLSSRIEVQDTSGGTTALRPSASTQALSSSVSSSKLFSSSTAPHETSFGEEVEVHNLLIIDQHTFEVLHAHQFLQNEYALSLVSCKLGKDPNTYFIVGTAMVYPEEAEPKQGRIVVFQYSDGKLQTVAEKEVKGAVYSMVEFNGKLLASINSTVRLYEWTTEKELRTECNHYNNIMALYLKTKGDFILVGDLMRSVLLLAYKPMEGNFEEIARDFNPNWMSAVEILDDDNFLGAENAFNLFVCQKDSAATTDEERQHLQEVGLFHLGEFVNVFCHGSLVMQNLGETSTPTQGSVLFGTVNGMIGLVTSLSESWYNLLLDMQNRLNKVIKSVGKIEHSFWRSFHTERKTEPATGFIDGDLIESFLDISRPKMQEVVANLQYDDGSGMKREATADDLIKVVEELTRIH
In short: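 Biotinylated NEK7 (200 nM) on streptavidin donor beads and 6×His-CRBN/Strep-DDB1 (200 nM) on anti-His acceptor beads, each at 40 μg/ml and preincubated 30 min, then mixed and added to compound in HBS pH 7.4, 0.1% Tween-20, 1 mM DTT, 2% DMSO. After 30 min at 25 °C, AlphaLISA signal was read (ex 680/em 615 nm) and normalised to DMSO background and maximal Compound 2 signal.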

NEK7-HiBiT protein = NEK7-HiBiT protein (Homo sapiens, UniProt Q8TDX7); assay: NEK7-HiBiT degradation assay (Nano-Glo HiBiT Lytic Assay) in HEK293 NEK7-HiBiT cells; assay type: cell-based; conditions: 24 h, conc. 0.1, 1 and 10 μM tested, concentration of the table values not stated, mean of 3 technical replicates
Sequence of NEK7-HiBiT protein (Q8TDX7 whole entry): as the sequence (Q8TDX7 whole entry) above
Sequence of NEK7-HiBiT protein (Q96SW2 whole entry, further chain): as the sequence (Q96SW2 whole entry) above
Sequence of NEK7-HiBiT protein (Q16531 whole entry partner): as the sequence (Q16531 whole entry partner) above
In short: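 HEK293 cells with CRISPR knock-in N-terminal HiBiT-tagged NEK7 exposed to compound for 24 h at 37 °C, 5% CO2. Residual NEK7-HiBiT was read as Nano-Glo HiBiT lytic luminescence and expressed as % of DMSO control across triplicates; compounds run at 0.1, 1 and 10 μM.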

Row | SMILES | activation at 1 µM [1] [%] | Levels of NEK7-HiBiT Protein (as a % of DMSO control) (NEK7-HiBiT protein)
1 | O=C1CCC(N2Cc3cc(-c4ccccn4)ccc3C2=O)C(=O)N1 (centres unmarked) [2(2), 3-(1-oxo-5-(pyridin-2-yl)isoindolin-2-yl)piperidine-2,6-dione] | > 80 | B (Levels of NEK7-HiBiT Protein > 25% and ≤50%)
2 | O=C1CCC(N2Cc3cc(-c4ccc(-c5ccccc5)cn4)ccc3C2=O)C(=O)N1 (centres unmarked) [4(2), 3-(1-oxo-5-(5-phenylpyridin-2-yl)isoindolin-2-yl)piperidine-2,6-dione] | > 80 | A (Levels of NEK7-HiBiT Protein ≤ 25%)
3 | O=C1CCC(N2Cc3cc(C4CCCCN4)ccc3C2=O)C(=O)N1 (centres unmarked) [Compound 2, 3-(1-oxo-5-(piperidin-2-yl)isoindolin-2-yl)piperidine-2,6-dione] | > 80 | A (Levels of NEK7-HiBiT Protein ≤ 25%)
4 | Cc1c(C2CCCCN2)ccc2c1CN(C1CCC(=O)NC1=O)C2=O (centres unmarked) [Compound 19, 3-(4-methyl-1-oxo-5-(piperidin-2-yl)isoindolin-2-yl)piperidine-2,6-dione] | < 10 | B (Levels of NEK7-HiBiT Protein > 25% and ≤50%)
5 | O=C1CCC(N2Cc3cc(C4CCCCN4)c(F)cc3C2=O)C(=O)N1 (centres unmarked) [Compound 23, 3-(6-fluoro-1-oxo-5-(piperidin-2-yl)isoindolin-2-yl)piperidine-2,6-dione] | < 10 | B (Levels of NEK7-HiBiT Protein > 25% and ≤50%)
6 | CC1c2cc(C3CCCCN3)ccc2C(=O)N1C1CCC(=O)NC1=O (centres unmarked) [Compound 25, 3-(3-methyl-1-oxo-5-(piperidin-2-yl)isoindolin-2-yl)piperidine-2,6-dione] | > 80 | A (Levels of NEK7-HiBiT Protein ≤ 25%)
7 | CC1c2cc(C3CCCCO3)ccc2C(=O)N1C1CCC(=O)NC1=O (centres unmarked) [Compound 64, 3-(3-methyl-1-oxo-5-(tetrahydro-2H-pyran-2-yl)isoindolin-2-yl)piperidine-2,6-dione] | > 80 | A (Levels of NEK7-HiBiT Protein ≤ 25%)
